According to patent US10022374B2, “Certain protein kinase inhibitors” (Shanghai Fochon Pharmaceutical Co., Ltd., priority 2013, dated 2018):
Like-named read-outs stand apart in the source and are kept apart here.

Columns and labels:
A-375 cells = experiment: Inhibition of cell proliferation (MTS), A-375 cells; type: cell-based; conditions: Homo sapiens, A-375, 72 h
Method: (§1) MTS testing kit was purchased from Promega. The DMEM, RPMI-1640 and Fetal bovine serum were purchased from Gibco. Dimethyl sulfoxide (DMSO) was purchased from Sigma.
(§2) To investigate whether a compound is able to inhibit the activity of MEK in cells, a mechanism-based assay using A-375 and HT-29 cell was developed. In this assay, inhibition of MEK was detected by the inhibition of A-375 and HT-29 cells proliferation. A-375 and HT-29 cells were cultured in culture flasks to 40-80% confluence respectively in DMEM and RPMI-1640 plus 10% fetal bovine serum. Cells were collected and plated onto 96-well plates at desired cell density (A-375: 3000 cells/well; HT-29: 5000 cells/well). Plates were incubated overnight at 37° C., with 5% CO2 to adhere. Compounds were added to the plates. The final compound concentrations were […], 12.35, 4.12, 1.37, 0.46 and 0.15 nM, respectively. Place plates at 37° C., with 5% CO2 for 72 h. 10 μl MTS were added to each well and incubate the plates for exactly 2 hours. Absorbance was measured at 490 nm. […] was calculated using GraphPad Prism 5.0.

HT-29 cells = experiment: Inhibition of cell proliferation (MTS), HT-29 cells; type: cell-based; conditions: Homo sapiens, HT-29, 72 h
Method: as §1, §2

[1] = A-375 cells, 3000 cells/well, 72 h, MTS, absorbance 490 nm, read-out: A375 IC50
[2] = HT-29 cells, 5000 cells/well, 72 h, MTS, absorbance 490 nm, read-out: HT29 IC50

Row | IC50 (A-375 cells; [1]) [nM] | IC50 (HT-29 cells; [2]) [nM] | Compound | IC50 (A-375 cells; read-out: A375 IC50 (nM)) [nM] | IC50 (HT-29 cells; read-out: HT29 IC50 (nM)) [nM]
1 | 399 | 315 | CCC(=O)Nc1cccc(-c2nn(CC(O)CO)c(=O)c3c(Nc4ccc(I)cc4F)c(F)c(=O)n(C)c23)c1 (stereo not shown) [Example 41, N-(3-(6-(2,3-dihydroxypropyl)-3-fluoro-4-(2-fluoro-4-iodophenylamino)-1-methyl-2,5-dioxo-1,2,5,6-tetrahydropyrido[2,3-d]pyridazin-8-yl)phenyl)propionamide] | – | –
2 | 180 | 112 | Cn1c(=O)c(F)c(Nc2ccc(I)cc2F)c2c(=O)n(CC(O)CO)nc(-c3cccc(NC(=O)C4CC4)c3)c21 (stereo not shown) [Example 42, N-(3-(6-(2,3-dihydroxypropyl)-3-fluoro-4-(2-fluoro-4-iodophenylamino)-1-methyl-2,5-dioxo-1,2,5,6-tetrahydropyrido[2,3-d]pyridazin-8-yl)phenyl)cyclopropanecarboxamide] | – | –
3 | 3.6 | 4.6 | Cn1c(=O)c(F)c(Nc2ccc(I)cc2F)c2c(=O)n(CC(O)CO)nc(-c3cccc(NS(C)(=O)=O)c3)c21 (stereo not shown) [Example 43, N-(3-(6-(2,3-dihydroxypropyl)-3-fluoro-4-(2-fluoro-4-iodophenylamino)-1-methyl-2,5-dioxo-1,2,5,6-tetrahydropyrido[2,3-d]pyridazin-8-yl)phenyl)methanesulfonamide] | – | –
4 | 71.3 | 57.7 | CCS(=O)(=O)Nc1cccc(-c2nn(CC(O)CO)c(=O)c3c(Nc4ccc(I)cc4F)c(F)c(=O)n(C)c23)c1 (stereo not shown) [Example 44, N-(3-(6-(2,3-dihydroxypropyl)-3-fluoro-4-(2-fluoro-4-iodophenylamino)-1-methyl-2,5-dioxo-1,2,5,6-tetrahydropyrido[2,3-d]pyridazin-8-yl)phenyl)ethanesulfonamide] | – | –
5 | 9.8 | 23.5 | CC(C)S(=O)(=O)Nc1cccc(-c2nn(CC(O)CO)c(=O)c3c(Nc4ccc(I)cc4F)c(F)c(=O)n(C)c23)c1 (stereo not shown) [Example 45, N-(3-(6-(2,3-dihydroxypropyl)-3-fluoro-4-(2-fluoro-4-iodophenylamino)-1-methyl-2,5-dioxo-1,2,5,6-tetrahydropyrido[2,3-d]pyridazin-8-yl)phenyl)propane-2-sulfonamide] | – | –
6 | 68.9 | 24.2 | Cn1c(=O)c(F)c(Nc2ccc(I)cc2F)c2c(=O)n(CC(O)CO)nc(-c3cccc(NS(=O)(=O)C4CC4)c3)c21 (stereo not shown) [Example 46, N-(3-(6-(2,3-dihydroxypropyl)-3-fluoro-4-(2-fluoro-4-iodophenylamino)-1-methyl-2,5-dioxo-1,2,5,6-tetrahydropyrido[2,3-d]pyridazin-8-yl)phenyl)cyclopropanesulfonamide] | – | –
7 | 4.9 | 16.6 | CN(c1cccc(-c2nn(C3CC3)c(=O)c3c(Nc4ccc(I)cc4F)c(F)c(=O)n(C)c23)c1)S(C)(=O)=O [Example 47, N-(3-(6-cyclopropyl-3-fluoro-4-((2-fluoro-4-iodophenyl)amino)-1-methyl-2,5-dioxo-1,2,5,6-tetrahydropyrido[2,3-d]pyridazin-8-yl)phenyl)-N-methylmethanesulfonamide] | – | –
8 | 3.4 | 13.2 | CC(C)S(=O)(=O)N(C)c1cccc(-c2nn(C3CC3)c(=O)c3c(Nc4ccc(I)cc4F)c(F)c(=O)n(C)c23)c1 [Example 48, N-(3-(6-cyclopropyl-3-fluoro-4-((2-fluoro-4-iodophenyl)amino)-1-methyl-2,5-dioxo-1,2,5,6-tetrahydropyrido[2,3-d]pyridazin-8-yl)phenyl)-N-methylpropane-2-sulfonamide] | – | –
9 | 2.5 | 11.7 | CN(c1cccc(-c2nn(C3CC3)c(=O)c3c(Nc4ccc(I)cc4F)c(F)c(=O)n(C)c23)c1)S(=O)(=O)C1CC1 [Example 49, N-(3-(6-cyclopropyl-3-fluoro-4-((2-fluoro-4-iodophenyl)amino)-1-methyl-2,5-dioxo-1,2,5,6-tetrahydropyrido[2,3-d]pyridazin-8-yl)phenyl)-N-methylcyclopropanesulfonamide] | – | –
10 | 1.5 | 5.3 | CN(c1cccc(-c2nn(C)c(=O)c3c(Nc4ccc(I)cc4F)c(F)c(=O)n(C)c23)c1)S(C)(=O)=O [Example 50, N-(3-(3-fluoro-4-((2-fluoro-4-iodophenyl)amino)-1,6-dimethyl-2,5-dioxo-1,2,5,6-tetrahydropyrido[2,3-d]pyridazin-8-yl)phenyl)-N-methylmethanesulfonamide] | – | –
11 | – | – | CC(C)S(=O)(=O)N(C)c1cccc(-c2nn(C)c(=O)c3c(Nc4ccc(I)cc4F)c(F)c(=O)n(C)c23)c1 [Example 51, N-(3-(3-fluoro-4-((2-fluoro-4-iodophenyl)amino)-1,6-dimethyl-2,5-dioxo-1,2,5,6-tetrahydropyrido[2,3-d]pyridazin-8-yl)phenyl)-N-methylpropane-2-sulfonamide] | 2.2 | 2
12 | 5.7 | 7.8 | CN(c1cccc(-c2nn(C)c(=O)c3c(Nc4ccc(I)cc4F)c(F)c(=O)n(C)c23)c1)S(=O)(=O)C1CC1 [Example 52, N-(3-(3-fluoro-4-((2-fluoro-4-iodophenyl)amino)-1,6-dimethyl-2,5-dioxo-1,2,5,6-tetrahydropyrido[2,3-d]pyridazin-8-yl)phenyl)-N-methylcyclopropanesulfonamide] | – | –
13 | 7.8 | 19.1 | Cn1c(=O)c(F)c(Nc2ccc(I)cc2F)c2c(=O)n(C3CC3)nc(-c3cccc(N4CCCC4=O)c3)c21 [Example 53, 6-cyclopropyl-3-fluoro-4-((2-fluoro-4-iodophenyl)amino)-1-methyl-8-(3-(2-oxopyrrolidin-1-yl)phenyl)pyrido[2,3-d]pyridazine-2,5(1H,6H)-dione] | – | –
14 | – | – | Cn1nc(-c2cccc(N3CCCC3=O)c2)c2c(c(Nc3ccc(I)cc3F)c(F)c(=O)n2C)c1=O [Example 54, 3-fluoro-4-((2-fluoro-4-iodophenyl)amino)-1,6-dimethyl-8-(3-(2-oxopyrrolidin-1-yl)phenyl)pyrido[2,3-d]pyridazine-2,5(1H,6H)-dione] | 4.7 | 7.9
15 | 8.8 | 18.7 | Cn1c(=O)c(F)c(Nc2ccc(I)cc2F)c2c(=O)n(C3CC3)nc(-c3cccc(N4CCCS4(=O)=O)c3)c21 [Example 55, 6-cyclopropyl-8-(3-(1,1-dioxidoisothiazolidin-2-yl)phenyl)-3-fluoro-4-((2-fluoro-4-iodophenyl)amino)-1-methylpyrido[2,3-d]pyridazine-2,5(1H,6H)-dione] | – | –
16 | 9.3 | 14.1 | Cn1nc(-c2cccc(N3CCCS3(=O)=O)c2)c2c(c(Nc3ccc(I)cc3F)c(F)c(=O)n2C)c1=O [Example 56, 8-(3-(1,1-dioxidoisothiazolidin-2-yl)phenyl)-3-fluoro-4-((2-fluoro-4-iodophenyl)amino)-1,6-dimethylpyrido[2,3-d]pyridazine-2,5(1H,6H)-dione] | – | –
17 | > 1000 | > 1000 | Cc1ccc(Nc2c(C)c(=O)n(C)c3c(C)n[nH]c(=O)c23)c(F)c1 [Reference Compound, 4-((2-fluoro-4-methylphenyl)amino)-1,3,8-trimethylpyrido[2,3-d]pyridazine-2,5(1H,6H)-dione, reference compound] | – | –
